Common to all, as to type: functional
In one assay the test system is Candida albicans. The experiment in a line: Antifungal activity against Candida albicans by serial dilution method after 24 hrs.
Assay [1] relates to Cryptococcus neoformans. The experiment in a line: Antifungal activity against Cryptococcus neoformans by serial dilution method after 72 hrs.
The test system of another assay is Aspergillus fumigatus. The experiment in a line: Antifungal activity against Aspergillus fumigatus by serial dilution method after 7 days. The following applies: 168 h.
A further assay relates to Nannizzia gypsea. The experiment in a line: Antifungal activity against Microsporum gypseum by serial dilution method […].
Assay [2] relates to Cryptococcus neoformans. The experiment in a line: Selectivity ratio of compound MIC80 to voriconazole MIC80 for Cryptococcus neoformans.
Another assay relates to Candida tropicalis. The experiment in a line: Antifungal activity against Candida tropicalis by serial dilution method after 24 hrs.
The next assay deals with Trichophyton rubrum. The experiment in a line: Antifungal activity against Trichophyton rubrum by serial dilution method after 7 days. The settings on record: 168 h.

≈ marks a conversion by molar mass, not a printed value.

A word on the MIC80: it is the lowest concentration that inhibits either 80% of growth or 80% of the strains tested, depending on the study.

For `CN(CCCCOc1ccccc1Br)CC(O)(Cn1cncn1)c1ccc(F)cc1F` (centres undefined), the MIC80 in the assay with Candida albicans was 0.0156 µg/mL (≈ 0.0315 µM); in the assay with Cryptococcus neoformans [1], 0.004 µg/mL (≈ 0.00807 µM); against Aspergillus fumigatus, > 64 µg/mL; in the assay on Nannizzia gypsea it was 0.0625 µg/mL (≈ 0.126 µM); with Candida tropicalis it was 0.0156 µg/mL (≈ 0.0315 µM); with Trichophyton rubrum it was 0.0625 µg/mL (≈ 0.126 µM). For the same molecule, in the assay with Cryptococcus neoformans [2], the Selectivity ratio was 4.
In the case of `Cc1ccc(OCCCCN(C)CC(O)(Cn2cncn2)c2ccc(F)cc2F)cc1` (centres undefined), the MIC80 was found to be 0.0156 µg/mL (≈ 0.0362 µM) in the assay with Candida albicans; 0.0625 µg/mL (≈ 0.145 µM) with Cryptococcus neoformans [1]; 16 µg/mL (≈ 37.2 µM) in the assay on Aspergillus fumigatus; 0.0625 µg/mL (≈ 0.145 µM) with Nannizzia gypsea; 0.004 µg/mL (≈ 0.00929 µM) against Candida tropicalis; 0.0156 µg/mL (≈ 0.0362 µM) against Trichophyton rubrum.
As to `Cc1ccccc1OCCCCN(C)CC(O)(Cn1cncn1)c1ccc(F)cc1F` (centres undefined), the MIC80 was 0.0625 µg/mL (≈ 0.145 µM) in the assay with Candida albicans; 0.0156 µg/mL (≈ 0.0362 µM) against Cryptococcus neoformans [1]; > 64 µg/mL in the assay with Aspergillus fumigatus; 0.0625 µg/mL (≈ 0.145 µM) against Nannizzia gypsea; 0.0156 µg/mL (≈ 0.0362 µM) against Candida tropicalis; 0.0625 µg/mL (≈ 0.145 µM) in the assay on Trichophyton rubrum.
Take `CN(CCCCOc1ccc(F)cc1)CC(O)(Cn1cncn1)c1ccc(F)cc1F` (centres undefined): the MIC80 against Candida albicans was 0.0156 µg/mL (≈ 0.0359 µM); in the assay on Cryptococcus neoformans [1], 0.0625 µg/mL (≈ 0.144 µM); with Aspergillus fumigatus it was 16 µg/mL (≈ 36.8 µM); against Nannizzia gypsea, 0.0625 µg/mL (≈ 0.144 µM); in the assay with Candida tropicalis, 0.004 µg/mL (≈ 0.00921 µM); against Trichophyton rubrum it was 0.0156 µg/mL (≈ 0.0359 µM).
In the case of `CN(CCCCOc1ccc(Cl)cc1)CC(O)(Cn1cncn1)c1ccc(F)cc1F` (centres undefined), the MIC80 in the assay on Candida albicans was determined as 0.001 µg/mL (≈ 0.00222 µM); in the assay on Cryptococcus neoformans [1], 0.0156 µg/mL (≈ 0.0346 µM); against Aspergillus fumigatus it was 4 µg/mL (≈ 8.87 µM); against Nannizzia gypsea, 0.0156 µg/mL (≈ 0.0346 µM); against Candida tropicalis it was 0.001 µg/mL (≈ 0.00222 µM); in the assay on Trichophyton rubrum it was 0.0625 µg/mL (≈ 0.139 µM).
For `CN(CCCCOc1ccccc1Cl)CC(O)(Cn1cncn1)c1ccc(F)cc1F` (centres undefined), the MIC80 was 0.0156 µg/mL (≈ 0.0346 µM) against Candida albicans; 0.0156 µg/mL (≈ 0.0346 µM) against Cryptococcus neoformans [1]; > 64 µg/mL against Aspergillus fumigatus; 0.0625 µg/mL (≈ 0.139 µM) with Nannizzia gypsea; 0.0156 µg/mL (≈ 0.0346 µM) against Candida tropicalis; 0.0625 µg/mL (≈ 0.139 µM) against Trichophyton rubrum.
As to `CN(CCCCOc1ccc(C(C)(C)C)cc1)CC(O)(Cn1cncn1)c1ccc(F)cc1F` (centres undefined), the MIC80 in the assay with Candida albicans was 0.0625 µg/mL (≈ 0.132 µM); in the assay on Cryptococcus neoformans [1], 0.25 µg/mL (≈ 0.529 µM); in the assay with Aspergillus fumigatus it was > 64 µg/mL; with Nannizzia gypsea it was 0.0625 µg/mL (≈ 0.132 µM); in the assay on Candida tropicalis, 0.0625 µg/mL (≈ 0.132 µM); with Trichophyton rubrum, 0.0625 µg/mL (≈ 0.132 µM).
`Cc1cccc(OCCCCN(C)CC(O)(Cn2cncn2)c2ccc(F)cc2F)c1` (centres undefined): the MIC80 against Candida albicans came out at 0.0156 µg/mL (≈ 0.0362 µM); in the assay on Cryptococcus neoformans [1], 0.0625 µg/mL (≈ 0.145 µM); in the assay on Aspergillus fumigatus, 64 µg/mL (≈ 149 µM); in the assay on Nannizzia gypsea it was 0.0625 µg/mL (≈ 0.145 µM); against Candida tropicalis it was 0.0156 µg/mL (≈ 0.0362 µM); in the assay on Trichophyton rubrum it was 0.0625 µg/mL (≈ 0.145 µM).
`CN(CCCCOc1cccc(N)c1)CC(O)(Cn1cncn1)c1ccc(F)cc1F` (centres undefined): the MIC80 in the assay on Candida albicans was 0.0156 µg/mL (≈ 0.0362 µM); against Cryptococcus neoformans [1], 0.25 µg/mL (≈ 0.579 µM); in the assay with Aspergillus fumigatus it was > 64 µg/mL; with Nannizzia gypsea it was 0.0625 µg/mL (≈ 0.145 µM); with Candida tropicalis, 0.0156 µg/mL (≈ 0.0362 µM); against Trichophyton rubrum it was 0.25 µg/mL (≈ 0.579 µM).
For `CN(CCCCOc1ccc(OCc2ccccc2)cc1)CC(O)(Cn1cncn1)c1ccc(F)cc1F` (centres undefined), the MIC80 with Candida albicans came out at 0.0156 µg/mL (≈ 0.0299 µM); against Cryptococcus neoformans [1], 0.0156 µg/mL (≈ 0.0299 µM); in the assay on Aspergillus fumigatus it was 32 µg/mL (≈ 61.2 µM); against Nannizzia gypsea, 0.0156 µg/mL (≈ 0.0299 µM); against Candida tropicalis, 0.0156 µg/mL (≈ 0.0299 µM); against Trichophyton rubrum, 0.0625 µg/mL (≈ 0.12 µM).
With `COc1ccc(OCCCCN(C)CC(O)(Cn2cncn2)c2ccc(F)cc2F)cc1` (centres undefined), the MIC80 against Candida albicans is 0.0156 µg/mL (≈ 0.0349 µM); against Cryptococcus neoformans [1], 0.0625 µg/mL (≈ 0.14 µM); in the assay on Aspergillus fumigatus, 16 µg/mL (≈ 35.8 µM); in the assay with Nannizzia gypsea it was 0.0625 µg/mL (≈ 0.14 µM); in the assay on Candida tropicalis it was 0.004 µg/mL (≈ 0.00896 µM); against Trichophyton rubrum, 0.0156 µg/mL (≈ 0.0349 µM).
Regarding `CN(CCCCOc1ccc(Br)cc1)CC(O)(Cn1cncn1)c1ccc(F)cc1F` (centres undefined), the MIC80 in the assay on Candida albicans amounted to 0.001 µg/mL (≈ 0.00202 µM); in the assay on Cryptococcus neoformans [1] it was 0.004 µg/mL (≈ 0.00807 µM); in the assay on Aspergillus fumigatus, 4 µg/mL (≈ 8.07 µM); in the assay with Nannizzia gypsea, 0.0156 µg/mL (≈ 0.0315 µM); against Candida tropicalis, 0.001 µg/mL (≈ 0.00202 µM); with Trichophyton rubrum, 0.0156 µg/mL (≈ 0.0315 µM). In addition, in the assay with Cryptococcus neoformans [2], the Selectivity ratio is on record as 4.
In the case of `CN(CCCCOc1cccc(Br)c1)CC(O)(Cn1cncn1)c1ccc(F)cc1F` (centres undefined), the MIC80 against Candida albicans worked out at 0.0625 µg/mL (≈ 0.126 µM); with Cryptococcus neoformans [1] it was 0.0625 µg/mL (≈ 0.126 µM); against Aspergillus fumigatus, 64 µg/mL (≈ 129 µM); against Nannizzia gypsea it was 0.0156 µg/mL (≈ 0.0315 µM); with Candida tropicalis, 0.001 µg/mL (≈ 0.00202 µM); against Trichophyton rubrum, 0.0625 µg/mL (≈ 0.126 µM).
For `CN(CCCCOc1cccc([N+](=O)[O-])c1)CC(O)(Cn1cncn1)c1ccc(F)cc1F` (centres undefined), the MIC80 against Candida albicans stood at 0.0156 µg/mL (≈ 0.0338 µM); with Cryptococcus neoformans [1], 0.0625 µg/mL (≈ 0.135 µM); with Aspergillus fumigatus it was 64 µg/mL (≈ 139 µM); against Nannizzia gypsea it was 0.0625 µg/mL (≈ 0.135 µM); in the assay with Candida tropicalis it was 0.004 µg/mL (≈ 0.00867 µM); against Trichophyton rubrum it was 0.0625 µg/mL (≈ 0.135 µM).
Consider `CN(CCCCOc1ccccc1[N+](=O)[O-])CC(O)(Cn1cncn1)c1ccc(F)cc1F` (centres undefined), for which the MIC80 was 0.0625 µg/mL (≈ 0.135 µM) in the assay with Candida albicans; 0.25 µg/mL (≈ 0.542 µM) against Cryptococcus neoformans [1]; > 64 µg/mL against Aspergillus fumigatus; 0.0625 µg/mL (≈ 0.135 µM) against Nannizzia gypsea; 0.0625 µg/mL (≈ 0.135 µM) in the assay on Candida tropicalis; 0.0625 µg/mL (≈ 0.135 µM) in the assay on Trichophyton rubrum.
`CN(CCCCOc1ccc(N)cc1)CC(O)(Cn1cncn1)c1ccc(F)cc1F` (centres undefined): the MIC80 against Candida albicans is 0.0625 µg/mL (≈ 0.145 µM); against Cryptococcus neoformans [1], 0.25 µg/mL (≈ 0.579 µM); in the assay on Aspergillus fumigatus, > 64 µg/mL; against Nannizzia gypsea it was 0.25 µg/mL (≈ 0.579 µM); against Candida tropicalis, 0.0156 µg/mL (≈ 0.0362 µM); against Trichophyton rubrum, 1 µg/mL (≈ 2.32 µM).
In the case of `CN(CCCCOc1ccc(OC(F)(F)F)cc1)CC(O)(Cn1cncn1)c1ccc(F)cc1F` (centres undefined), the MIC80 was 0.0156 µg/mL (≈ 0.0312 µM) in the assay with Candida albicans; 0.0625 µg/mL (≈ 0.125 µM) against Cryptococcus neoformans [1]; > 64 µg/mL against Aspergillus fumigatus; 0.0625 µg/mL (≈ 0.125 µM) against Nannizzia gypsea; 0.004 µg/mL (≈ 0.00799 µM) in the assay with Candida tropicalis; 0.0156 µg/mL (≈ 0.0312 µM) against Trichophyton rubrum.
Consider `CN(CCCCOc1ccc([N+](=O)[O-])cc1)CC(O)(Cn1cncn1)c1ccc(F)cc1F` (centres undefined), for which the MIC80 against Candida albicans came out at 0.001 µg/mL (≈ 0.00217 µM); against Cryptococcus neoformans [1], 0.0156 µg/mL (≈ 0.0338 µM); in the assay on Aspergillus fumigatus, 64 µg/mL (≈ 139 µM); with Nannizzia gypsea, 0.0156 µg/mL (≈ 0.0338 µM); in the assay on Candida tropicalis, 0.004 µg/mL (≈ 0.00867 µM); against Trichophyton rubrum it was 0.0625 µg/mL (≈ 0.135 µM).
As to `CN(CCCCOc1ccccc1N)CC(O)(Cn1cncn1)c1ccc(F)cc1F` (centres undefined), the MIC80 against Candida albicans is 0.0625 µg/mL (≈ 0.145 µM); in the assay on Cryptococcus neoformans [1] it was 1 µg/mL (≈ 2.32 µM); with Aspergillus fumigatus it was > 64 µg/mL; with Nannizzia gypsea it was 0.25 µg/mL (≈ 0.579 µM); with Candida tropicalis, 0.0156 µg/mL (≈ 0.0362 µM); with Trichophyton rubrum, 1 µg/mL (≈ 2.32 µM).
Regarding `OC(Cn1cncn1)(Cn1cncn1)c1ccc(F)cc1F` [FLUCONAZOLE], the MIC80 in the assay with Candida albicans is 0.25 µg/mL (≈ 0.816 µM); in the assay with Cryptococcus neoformans [1], 1 µg/mL (≈ 3.27 µM); in the assay with Aspergillus fumigatus it was > 64 µg/mL; against Nannizzia gypsea it was 1 µg/mL (≈ 3.27 µM); with Candida tropicalis it was 1 µg/mL (≈ 3.27 µM); with Trichophyton rubrum, 0.25 µg/mL (≈ 0.816 µM).
Regarding `CCC(C)n1ncn(-c2ccc(N3CCN(c4ccc(OCC5COC(Cn6cncn6)(c6ccc(Cl)cc6Cl)O5)cc4)CC3)cc2)c1=O` (centres undefined) [ITRACONAZOLE], the MIC80 in the assay with Candida albicans is 0.125 µg/mL (≈ 0.177 µM); with Cryptococcus neoformans [1], 0.5 µg/mL (≈ 0.709 µM); with Aspergillus fumigatus, 2 µg/mL (≈ 2.83 µM); against Nannizzia gypsea, 0.125 µg/mL (≈ 0.177 µM); against Candida tropicalis it was 0.0156 µg/mL (≈ 0.0221 µM); against Trichophyton rubrum it was 0.125 µg/mL (≈ 0.177 µM).
Take `C[C@@H](c1ncncc1F)[C@](O)(Cn1cncn1)c1ccc(F)cc1F` [VORICONAZOLE]: the MIC80 was 0.0156 µg/mL (≈ 0.0447 µM) in the assay with Candida albicans; 0.0156 µg/mL (≈ 0.0447 µM) in the assay on Cryptococcus neoformans [1]; 0.25 µg/mL (≈ 0.716 µM) in the assay with Aspergillus fumigatus; 0.0156 µg/mL (≈ 0.0447 µM) with Nannizzia gypsea; 0.001 µg/mL (≈ 0.00286 µM) against Candida tropicalis; 0.0156 µg/mL (≈ 0.0447 µM) against Trichophyton rubrum.

These data come from ChEMBL document CHEMBL1154276, “Discovery of highly potent novel antifungal azoles by structure-based rational design” (2009).
